Source: publication PMC7749516, “Safety and nonclinical and clinical pharmacokinetics of PC945, a novel inhaled triazole antifungal agent” (Pharmacology Research & Perspectives, 2020)
Like-named read-outs stand apart in the source and are kept apart here.

Tests used:
[1] = cited from earlier work
CYP3A4/5 = assay: CYP inhibition in pooled human liver microsomes; assay type: in vitro ADME; conditions: without preincubation, pooled human liver microsomes
Method: Microsomal reactions were terminated by adding 100 μL of cold (4°C) methanol containing appropriate internal standard. Aliquots (150 μL) of each sample were centrifuged and the supernatant was used for substrate analysis by ultra‐performance liquid chromatography with tandem mass spectrometry (UPLC‐MS/MS) on the day of incubations.
Change in substrate concentration was measured to determine the extent of CYP‐isoform inhibition. The 30‐minute preincubations were performed to determine whether there was time‐dependent inhibition of any CYP isoform (CYP1A2, 2B6, 2C8, 2C9, 2C19, 2D6, and 3A4/5). Untreated control contained only solvent, dimethyl sulfoxide (≤0.5% [v/v]).

SMILES	Mean concentration in pulmonary alveolar cells relative to lung epithelial lining fluid and plasma ([1]; 14‐day oral 400 mg twice daily, steady state)	Cmax ([1]; after 200 mg three times daily oral dosing) [nM]	IC50 (CYP3A4/5; probe midazolam, substrate midazolam) [nM]	IC50 (CYP3A4/5; probe testosterone, substrate testosterone) [nM]	Cmax ([1]; after 15‐day, 200 mg daily oral dosing) [nM]
CC[C@@H]([C@H](C)O)n1ncn(-c2ccc(N3CCN(c4ccc(OC[C@@H]5CO[C@@](Cn6cncn6)(c6ccc(F)cc6F)C5)cc4)CC3)cc2)c1=O [posaconazole, reference compound]	over 30 fold	830	320	81	
CCC(C)n1ncn(-c2ccc(N3CCN(c4ccc(OCC5COC(Cn6cncn6)(c6ccc(Cl)cc6Cl)O5)cc4)CC3)cc2)c1=O (centres unmarked) [itraconazole]					1520
